Values joined by “and” are separate entries in the source; they are usually repeats but may differ in a detail not shown here. Equal values may be shown once.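 Values below derive from 48-hour exposures of cells grown in 96-well plates, with endpoints linearly interpolated between the two concentrations bracketing the appropriate inhibition level. GI50 is the concentration that inhibits growth by half. TGI denotes the concentration required for complete inhibition of growth.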
Experiments:
Assay in all cases: growth of human tumour cells (NCI), 48 h
ACHN renal = tested on: ACHN renal
HCC-2998 colon = tested on: HCC-2998 colon
IGROV1 ovarian = tested on: IGROV1 ovarian
K-562 leukemia = tested on: K-562 leukemia
RPMI-8226 leukemia = tested on: RPMI-8226 leukemia
SF-539 CNS = tested on: SF-539 CNS
SK-MEL-28 melanoma = tested on: SK-MEL-28 melanoma
SW-620 colon = tested on: SW-620 colon
NCI/ADR-RES ovarian = tested on: NCI/ADR-RES ovarian
OVCAR-8 ovarian = tested on: OVCAR-8 ovarian

SMILES | TGI (ACHN renal) [µM] | TGI (HCC-2998 colon) [µM] | TGI (IGROV1 ovarian) | TGI (K-562 leukemia) | TGI (RPMI-8226 leukemia) [µM] | TGI (SF-539 CNS) | TGI (SK-MEL-28 melanoma) | TGI (SW-620 colon) | GI50 (ACHN renal) [µM] | GI50 (HCC-2998 colon) [µM] | GI50 (IGROV1 ovarian) [µM] | GI50 (K-562 leukemia) [µM] | GI50 (NCI/ADR-RES ovarian) [µM] | TGI (NCI/ADR-RES ovarian) | GI50 (OVCAR-8 ovarian) | TGI (OVCAR-8 ovarian) [µM] | GI50 (RPMI-8226 leukemia) [µM] | GI50 (SK-MEL-28 melanoma) | GI50 (SW-620 colon) [µM] | GI50 (SF-539 CNS) [µM]
COC(=O)/C(=N\NC(=O)C[N+](C)(C)C)C(C(=O)OC)C(=O)C(=O)Nc1ccccc1C(N)=O (centres undefined) | > 100 | > 100 | > 100 µM | > 100 µM | > 100 | > 100 µM | > 100 µM | > 100 µM |  |  |  |  |  |  |  |  |  |  |  | 
O=C1c2cccc(NCCN=Cc3cc([N+](=O)[O-])ccc3O)c2C(=O)c2c(NCCN=Cc3cc([N+](=O)[O-])ccc3O)cccc21 | > 100 | > 100 | > 100 µM | > 100 µM | 4.35 |  | > 100 µM | > 100 µM | 5.61 | 5.87 | 2.62 | 3.67 | > 100 | > 100 µM | 2.55 µM | > 100 | 1.03 | 14.9 µM | 1.49 | 
C#CC1(O)C(COP(=O)(O)OC(COCCCCCCCCCCCCCCCCCC)COP(=O)(O)OCC2OC(n3cc(F)c(=O)[nH]c3=O)CC2O)OC(n2ccc(N)nc2=O)C1O (centres undefined) | > 100 | > 28.4 | 2.59 µM and 4.59 µM | > 100 µM and 16.7 µM |  | 12.2 µM and 22.3 µM | 21.8 µM and 28.8 µM | > 100 µM and 48.1 µM |  |  | 0.135 |  |  | 8.28 µM and 30.5 µM | 0.0922 µM and 0.28 µM | > 60.9 |  | 0.618 µM and 1.49 µM |  | 
CCC1CN2C(=N1)c1ccccc1-c1cc(Cl)ccc12 (centres undefined) | 4.21 | 16.3 | 15.1 µM | 7.1 µM |  | 14.8 µM | 18.4 µM | 15.5 µM | 1.75 | 4.17 | 2.29 | 2.39 | 3.7 | 18.4 µM | 3.32 µM | 18.4 |  | 4.97 µM | 2.72 | 3.88
O=c1[nH]nc2ccccc2c1Cc1ccccc1 | > 100 | > 100 | > 100 µM | > 100 µM | > 100 | > 100 µM | > 100 µM | > 100 µM |  |  |  |  |  |  |  | > 100 |  |  |  | 
CCOC(=O)c1c2c(n(Cc3ccc(Cl)cc3Cl)c1C)-c1nc[nH]c1C(=O)C2=O | 16.1 |  | 24 µM | 12.3 µM | 6.03 | 16.4 µM | 28.9 µM | 18.2 µM | 4.45 |  | 11.2 | 3.21 |  |  | 10.5 µM | 22.2 | 2.5 | 15.6 µM | 6.19 | 4.4
Clc1ccc(N=Nc2nc3ccccc3nc2N=Nc2ccc(Cl)cc2Cl)c(Cl)c1 | > 100 | > 100 | > 100 µM | > 100 µM | > 100 | > 100 µM | > 100 µM | > 100 µM |  |  |  |  |  |  |  | > 100 |  |  |  | 
c1ccc(C(c2ccccc2)c2cccnc2)cc1 | > 100 | > 100 | > 100 µM | > 100 µM | > 100 | > 100 µM | > 100 µM | > 100 µM |  |  |  |  |  |  |  | > 100 |  |  |  | 
Cc1ccc(SSc2ccc(C)cc2C(=O)O)c(C(=O)O)c1 | > 100 |  |  | > 100 µM |  | > 100 µM | > 100 µM | > 100 µM |  |  |  |  |  |  |  | > 100 |  |  |  | 
COc1cc([C@@H]2c3cc4c(cc3[C@@H](OC(=O)c3ccc(N)cc3)C3COC(=O)[C@@H]32)OCO4)cc(OC)c1O (some centres undefined) | 28.2 | 36.3 | 17.3 µM | > 95 µM | 58 | 7.99 µM | > 95 µM | > 95 µM |  |  |  |  |  |  |  | 78.5 |  |  |  | 
C[C@]12CCC(=O)C=C1CC[C@@H]1C2CC[C@]2(C)Nc3c(cnn3-c3ccccc3)CC12 (some centres undefined) | > 100 | > 100 | > 100 µM | > 100 µM | > 100 | > 100 µM | > 100 µM | > 100 µM |  |  |  |  |  |  |  | > 100 |  |  |  | 
COCC(O)Cn1ccnc1[N+](=O)[O-] (centres undefined) | > 100 | > 100 |  | > 100 µM | > 100 | > 100 µM | > 100 µM | > 100 µM |  |  |  |  |  |  |  | > 100 |  |  |  | 
CC1OC(OC2C[C@](O)(C(=O)CF)Cc3c(O)c4c(c(O)c32)C(=O)c2ccccc2C4=O)CC(N)C1O (some centres undefined) | 0.0777 | 0.488 | 2.4 µM | 1.96 µM | 0.132 | 1.33 µM | 1.91 µM | 0.741 µM |  |  |  |  |  |  |  | 0.231 |  |  |  | 
COc1ccc(/C=C/C(=O)c2ccc(O)c(CN3CCN(c4cc5c(cc4F)c(=O)c(C(=O)O)cn5C4CC4)CC3)c2)cc1 | 17.9 | > 100 | > 100 µM | > 100 µM |  | > 100 µM | > 100 µM | > 100 µM | 2.18 | 4.15 | 1.27 | 0.463 | 4.44 | > 100 µM | 0.644 µM | > 100 |  | 1.72 µM | 1.38 | 0.407
CCOC1=C2C(=O)OC(=O)C2C2CCCCC2=C1 (centres undefined) |  | > 100 | > 100 µM | > 100 µM | > 100 | > 100 µM | > 100 µM | > 100 µM |  |  |  |  |  |  |  | > 100 |  |  |  | 
CC(C)CCCC(C)[C@H]1CCC2[C@@H]3CCC4Nc5nocc5C[C@]4(C)C3CC[C@@]21C (some centres undefined) | 28.6 | 29.5 | 57 µM | 38.3 µM | 69.3 | 33.5 µM |  | 31.4 µM |  |  |  |  |  |  |  | 35.9 |  |  |  | 
OCC1C(/C=C/c2ccoc2)ON2CCCC12 (centres undefined) | > 100 | > 100 |  |  |  | > 100 µM | > 100 µM | > 100 µM |  |  |  |  |  |  |  | > 100 |  |  |  | 
NC(=O)c1ccc(I)c(N=O)c1 | > 100 | > 100 | 86.4 µM |  | 88.7 | > 100 µM | > 100 µM | 33.3 µM | 30.8 | 67.5 | 26.7 |  | 44.9 | > 100 µM | 25.8 µM | 60.6 | 36.9 | 46.9 µM | 18.3 | 32.3
O=C1NC2(CCCCCC2)C2CCCCCCC12O (centres undefined) | > 100 |  | > 100 µM | > 100 µM |  | > 100 µM | > 100 µM | > 100 µM |  |  |  |  |  |  |  | > 100 |  |  |  | 
OCC(O)C(Cl)CCl (centres undefined) | > 100 | > 100 | > 100 µM | > 100 µM |  | > 100 µM | > 100 µM | > 100 µM |  |  |  |  |  | > 100 µM |  | > 100 |  |  |  | 

— PubChem BioAssay (NCI)
